Series [1] deals with Epstein-Barr virus (EBV) in Raji cells. Nature of the series: EBV activation assay in Raji cells (BZLF1 qRT-PCR). The class given is cell-based. (In qPCR the cycle at which signal appears reflects the starting amount.)
Series [2] concerns HIV-1 Gag (p24) in ACH-2 cells. Nature of the series: Intracellular staining for HIV Gag in ACH-2 cells (flow cytometry). The class given is cell-based. Particulars: for Intracellular Gag, percentage of positive cells: 16 h, 30 μM Cmpd 1 or Cmpd 2, 10 μM SAHA, 1 mM JQ1 or 10 ng/ml PMA, single experiment (Fig 4A). The method, then:
ACH-2 cells were treated as indicated and HIV-1 expression was monitored by intracellular staining for p24. Approximately, 1 × 10^6 cells were collected and washed in PBS before fixing by resuspending in 100 μl of BD Cytofix/Cytoperm (BD Biosciences, San Jose, CA) at 4°C for at least 20 min. Cells were then harvested by centrifugation and resuspended in 100 μl BD PermWash (50 mM NH4Cl, 5 mM EDTA, 0.1% saponin, 0.5% BSA, PBS and 1 mg/ml of anti-HIV-Gag PE (Clone KC57, Beckman Coulter, Brea CA). Cells were stained for 30 min, washed with the PermWash, and resuspended in FACS buffer (2 mM EDTA, 0.5% BSA, 1% paraformaldehyde in PBS). Cells were analyzed by flow cytometry using a FACSCalibur instrument (BD Biosciences). Flow cytometry was performed at the Boston University School of Medicine flow cytometry core.
Fig 4 Induction of HIV-1 expressing cells following treatment with latency reversing agents. ACH-2 cells were not treated or treated with a final concentration of 30 μM Cmpd 1 or Cmpd 2, 10 μM SAHA, 1 mM JQ1 or 10 ng/ml PMA for 16 h. Cells were stained using anti-HIV-Gag-PE and analyzed by flow cytometry. Numbers within the profiles represent the percentage of positive cells. These profiles are from a single experiment. B) Data from four independent experiments. Y-axis is mean of % p24 positive cells. * Cmpd 1 p-value […] compared to other treatments using a two-tailed t-test. TEXT PRINTED IN THE PICTURE: (A) Cmpd 1: Intracellular Gag: 65.6% | (A) Cmpd 2: Intracellular Gag: 33.9% | (A) SAHA: Intracellular Gag: 23.0% | (A) JQ1: Intracellular Gag: 16.7% | (A) PMA: Intracellular Gag: 94.2%

For series [3], the system named is IL-2 secretion by PBMCs. Nature of the series: IL-2 ELISA in PBMCs. Format: cell-based, human. Particulars: 24 h. The method, then:
Cryopreserved PBMCs from a single donor were thawed in RPMI-1640 plus 10% FBS. PBMCs were plated at 5×10^4/well in 96-well plates and compound was added with a final concentration of 0.5% DMSO. Plates were incubated for 24 h at 37°C, 5% CO2. Interleukin-2 was quantified using Human IL-2 DuoSet ELISA (R&D Systems, Minneapolis, MN). Raw data were converted to ng/ml IL-2 using a standard curve obtained in parallel.

For series [4], the system named is HIV-1 RNA in U1 cells. Nature of the series: HIV-1 transcription in U1 cells (qRT-PCR). Format: cell-based. The note with it: 30 μM, 24 h, qRT-PCR (Fig 3). The method, then: ACH-2 cells were maintained in RPMI-1640 medium without phenol red and with 10% FBS at 37°C in a 5% CO2 atmosphere. Cells were plated at 5000/well in 96-well round-bottom plated and test compounds were added in a final concentration of 0.5% DMSO, in duplicate. Cells were incubated for 24 h at 37°C, 5% CO2, then pelleted at 2000 × g for 5 min followed by washing in 0.1 ml PBS. RNA was isolated using Invitrogen PureLink 96 RNA Purification Kit with vacuum manifold per the manufacturer’s instructions, including DNase I treatment. HIV-1 transcripts were detected using TaqMan® RNA-to-CT™ 1-step kit (Applied Biosystems, Foster City, CA) and primers/probe specific to gag (SK38 forward: 5ʹ-[…]-3ʹ; SK39 reverse: 5ʹ-[…]-3ʹ; SK19 probe: 5ʹ-6FAM […] TAMRA-3ʹ) or tat (forward: 5ʹ-[…]-3ʹ; reverse: 5ʹ-[…]-3ʹ; probe: 5ʹ-6FAM […]-3ʹ). GAPDH RNA was monitored in all assays as an endogenous control for selectivity using a pre-developed TaqMan assay reagent (Applied Biosystems, Foster City, CA). RNA was quantified on an Applied Biosystems 7900HT. PCR replicates were performed for each biological replicate. Viral RNA expression was normalized to GAPDH RNA and data are expressed as the change from vehicle-only control wells.
Fig 3 Compounds 1 and 2 induce HIV-1 transcription in ACH-2 and U1. […] RNA was prepared and HIV expression was monitored by qRT-PCR. […]

Series [5] is described as follows: Protein binding, human plasma (ultrafiltration). The class given is in vitro ADME. Particulars: human, plasma, pH 7.4.
Description: Binding of test compound to plasma proteins was estimated by incubation of test compounds with mouse or human plasma. Human plasma was obtained from BioreclamationIVT (Westbury, NY). […] After a 15 min incubation at 37°C, triplicate aliquots of the incubation mixtures were transferred to a Millipore Multiscreen Ultracel-10 filter plate (10 kDa molecular mass cut off, EMD Millipore, Billerica, MA). The plate was centrifuged for 60 min at 3000 × g and 37°C. After centrifugation, aliquots of both the ultrafiltrates as well as the incubation mixtures prior to ultrafiltration were analyzed by LC-MS/MS to quantify the concentrations of test compound and reference compounds.
Series [6] in a line: Microsome assay, mouse liver microsomes. The class given is in vitro ADME. The method, then:
Human and mouse liver microsomes were obtained from XenoTech, LLC (Kansas City, KS). The reaction mixture was composed of liver microsomes (0.5 mg/mL), 20 mM Tris-HCl pH 7.4, 2.5 mM MgCl2, and an NADPH generating system (0.1 mM NADP, 1.2 mM glucose-6-phosphate and 0.3 units/ml glucose-6-phophate dehydrogenase). […] Test compounds were added to the microsome reaction and loss of parent molecule was monitored after 1 h by LC/MS/MS.
(In general: Microsomes from liver hold many membrane-bound enzymes, among them those of drug oxidation.)

The nature of series [7]: Pharmacokinetics in CD-1 mice. Format: in vivo. The note with it: mouse, 10 mg/kg, PO. On the procedure: All animal studies were performed in compliance with IACUC approved protocols at AAALAC-certified animal facilities. Pharmacokinetics of test compounds were evaluated in CD-1 mice (Charles River Laboratories, Wilmington, MA). Compounds were formulated as a suspension in 0.5% hydroxypropylmethyl cellulose with 0.1% Tween 80 and administered by gavage at a dose of 10 mg/kg. […] Mice were anaesthetized with CO2 followed by terminal exsanguination as per the Guide for the Care and Use of Laboratory Animals. Blood was collected by terminal cardiac puncture at 1, 2, 4, 7, 16, and 24 h post-dose (3 mice per time point), and centrifuged to collect plasma. Brain tissue was collected at the time of blood collection and homogenized in water. The concentrations of test compound in plasma and brain tissue were quantified by liquid chromatography-tandem mass spectrometry (LC-MS/MS). Briefly, the plasma and tissue homogenate samples were treated with an acetonitrile-methanol mixture containing an internal standard that is a close structural analog of the test compounds. The treated plasma and brain homogenate samples were centrifuged and the supernatant was collected and analyzed using electro-spray LC-MS/MS.

Series [8] has as its system Kaposi's sarcoma associated herpesvirus (KSHV) in BCP-1 cells. Nature of the series: KSHV activation assay in BCP-1 cells (ORF50 qRT-PCR). Format: cell-based. Particulars: 24 h, up to 100 μM.
The mark [9] stands for this setting: CD-1, brain, read-out: AUC0-24, brain.
Where [10] appears, read: CD-1, plasma, read-out: AUC0-24, plasma.

Each structure is given as a SMILES string. Read-outs that look alike come from different tables or passages of the source.

For orientation: fraction unbound means the share of the substance not bound to proteins or other matrix. Low values mean little free substance, high ones much free substance. The term Cmax denotes the highest concentration seen after dosing.

Consider `Nc1ccc2[nH]c(-c3ccc(-c4nc5cc(N)ccc5o4)cc3)nc2c1` [Compound 1, 2-(4-(5-amino-1H-benzimidazol-2-yl)phenyl)benzoxazol-5-amine], for which the “Effect on BLZF1 mRNA (EBV)” value in series [1] (Raji cells, 24 h, up to 100 μM) is reported as “little effect”. Moreover, in series [2], the “Intracellular Gag, percentage of positive cells” value is reported as 65.6%. In series [2] (SAHA or JQ1 used at active concentrations), the “Fold more ACH-2 cells induced than with SAHA or JQ1” value is “approximately 2 fold”. Besides, the “ACH-2 cells in which HIV-1 expression was induced” value in series [2] (text statement (Fig 4)) was “over 70%”. Moreover, the “IL-2 secretion by PBMCs (in words)” value in series [3] is reported as “neither Compound 1 nor 2 increased secretion of IL-2”. Also, in series [4], the “Induction of HIV-1 transcription in U1 cells (in words)” value was “induced HIV-1 transcription”. Moreover, in series [5], the fraction unbound at 15 min, 10 μM was < 0.01. For the same compound, the “MLM stability (% loss of parent compound at 1 h)” value in series [6] was 28%. For the same compound, the AUC(0-t) in series [7] (setting [9]) was determined as 0.12 µM·h; in series [7] (setting [10]), 2.2 µM·h. Also, the highest level in series [7] (CD-1, plasma) (Cmax) was 550 nM. The “Cmax, brain” value in series [7] worked out at 65 nM. Moreover, the “Effect on ORF50 mRNA (KSHV)” value in series [8] is recorded as “little effect”.

On to `Nc1ccc2[nH]c(-c3ccc(-c4nc5ccc(N)cc5o4)cc3)nc2c1` [Compound 2], for which the “Effect on BLZF1 mRNA (EBV)” value in series [1] is listed as “little effect”. Also, the “Intracellular Gag, percentage of positive cells” value in series [2] is listed as 33.9%. For the same compound, the “IL-2 secretion by PBMCs (in words)” value in series [3] is on record as “neither Compound 1 nor 2 increased secretion of IL-2”. Also, the “Induction of HIV-1 transcription in U1 cells (in words)” value in series [4] is “induced HIV-1 transcription”. In series [5], the free fraction (fraction unbound) at 15 min, 10 μM was < 0.003. Besides, the “MLM stability (% loss of parent compound at 1 h)” value in series [6] was found to be 53%. Further, the AUC(0-t) came to 0.054 µM·h in series [7] (setting [9]) and 0.92 µM·h in series [7] (setting [10]). Moreover, the concentration in series [7] (CD-1, plasma) peaked (Cmax) at 180 nM. The “Cmax, brain” value in series [7] stood at 54 nM. In addition, the “Effect on ORF50 mRNA (KSHV)” value in series [8] was “little effect”.

The values are drawn from PMC5489165, “Identification of benzazole compounds that induce HIV-1 transcription” (PLoS ONE, 2017).
